Reference: patent publication US11566007B2, “Ras inhibitors” (Revolution Medicines, Inc., priority 2019, dated 2023)
Where “and” joins values, the source holds several entries; their conditions need not be identical. Identical values can stand only once.

Key:
NRAS G12C = NRAS G12C (Homo sapiens (Human), UniProt P01111+P62937, G12C); test: Ras-Raf (BRAF RBD) disruption / FRET / MOA assay, NRAS G12C; format: biochemical; conditions: read-out: IC50* NRAS G12C FRET data
Outline: (§1)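 TR-FRET read-out: a drop in ratio relative to DMSO wells marks disruption of the Ras:RAF complex, reported as IC50. Compounds (3-fold series, 10 points, top 30 μM final) incubated 3 h at 25° C before Eu-anti-His 10 nM and APC-anti-GST 50 nM, 1.5 h more.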

K-Ras G13C = K-Ras G13C (Homo sapiens (Human), UniProt P01116+P62937, G13C); test: Ras-Raf (BRAF RBD) disruption / FRET / MOA assay, KRAS G13C; format: biochemical; conditions: KRAS G13C; Ras-Raf disruption/FRET/MOA assay; read-out: IC50* KRAS G13C FRET data
Chain of K-Ras G13C (P01116-2 other isoform, or with tags, fused parts or gaps G13C): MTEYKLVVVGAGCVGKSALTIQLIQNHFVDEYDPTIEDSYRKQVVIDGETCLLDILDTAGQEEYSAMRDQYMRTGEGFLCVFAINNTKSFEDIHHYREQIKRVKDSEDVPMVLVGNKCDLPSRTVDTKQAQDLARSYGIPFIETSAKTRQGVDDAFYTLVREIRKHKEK
Chain of K-Ras G13C (P62937 whole entry): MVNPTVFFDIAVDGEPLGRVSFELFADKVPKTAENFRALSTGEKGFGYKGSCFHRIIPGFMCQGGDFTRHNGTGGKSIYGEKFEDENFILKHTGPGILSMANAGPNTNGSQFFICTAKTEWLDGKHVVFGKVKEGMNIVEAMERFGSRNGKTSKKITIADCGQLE
Outline: as §1

K-Ras G12C = K-Ras G12C (Homo sapiens (Human), UniProt P01116+P62937, G12C); test: Ras-Raf (BRAF RBD) disruption / FRET / MOA assay, KRAS G12C; format: biochemical; conditions: KRAS G12C; Ras-Raf disruption/FRET/MOA assay; read-out: IC50* KRAS G12C FRET data
Chain of K-Ras G12C (P01116-2 other isoform, or with tags, fused parts or gaps G12C): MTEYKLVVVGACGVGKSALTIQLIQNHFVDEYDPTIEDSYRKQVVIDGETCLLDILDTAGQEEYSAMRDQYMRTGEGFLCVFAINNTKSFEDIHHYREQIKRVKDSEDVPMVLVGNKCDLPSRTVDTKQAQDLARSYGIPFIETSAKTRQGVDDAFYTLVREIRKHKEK
Chain of K-Ras G12C (P62937 whole entry): as the sequence (P62937 whole entry) above
Outline: as §1

KRAS G12V = KRAS G12V (Homo sapiens (Human), UniProt P01116+P62937, G12V); test: Ras-Raf (BRAF RBD) disruption / FRET / MOA assay, KRAS G12V; format: biochemical; conditions: read-out: IC50* KRAS G12V FRET data
Chain of KRAS G12V (P01116-2 other isoform, or with tags, fused parts or gaps G12V): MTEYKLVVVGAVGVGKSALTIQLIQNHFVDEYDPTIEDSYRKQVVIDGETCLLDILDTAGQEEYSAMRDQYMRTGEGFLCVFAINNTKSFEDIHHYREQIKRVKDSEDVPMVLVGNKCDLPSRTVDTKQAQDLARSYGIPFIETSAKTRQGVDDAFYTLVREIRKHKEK
Chain of KRAS G12V (P62937 whole entry): as the sequence (P62937 whole entry) above
Outline: as §1

KRAS G12D = KRAS G12D (Homo sapiens (Human), UniProt P01116+P62937, G12D); test: Ras-Raf (BRAF RBD) disruption / FRET / MOA assay, KRAS G12D; format: biochemical; conditions: Ras-Raf disruption/FRET/MOA assay; class symbols; read-out: KRAS G12D FRET data IC50
Chain of KRAS G12D (P01116-2 other isoform, or with tags, fused parts or gaps G12D): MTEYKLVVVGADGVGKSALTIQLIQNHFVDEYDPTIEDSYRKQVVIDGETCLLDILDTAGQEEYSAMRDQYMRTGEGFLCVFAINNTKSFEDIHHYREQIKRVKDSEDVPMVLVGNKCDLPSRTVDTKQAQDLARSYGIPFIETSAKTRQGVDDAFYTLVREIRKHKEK
Chain of KRAS G12D (P62937 whole entry): as the sequence (P62937 whole entry) above
Outline: as §1

KRAS WT = KRAS WT (Homo sapiens (Human), UniProt P01116+P62937); test: Ras-Raf (BRAF RBD) disruption / FRET / MOA assay, KRAS WT; format: biochemical; conditions: read-out: IC50* KRAS WT FRET data
Chain of KRAS WT (P01116-2 other isoform, or with tags, fused parts or gaps): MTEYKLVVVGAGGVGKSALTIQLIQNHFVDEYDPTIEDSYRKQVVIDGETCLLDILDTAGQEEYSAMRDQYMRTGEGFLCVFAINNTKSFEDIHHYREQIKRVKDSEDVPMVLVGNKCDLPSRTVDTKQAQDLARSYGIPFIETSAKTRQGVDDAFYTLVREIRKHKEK
Chain of KRAS WT (P62937 whole entry): as the sequence (P62937 whole entry) above
Outline: as §1

KRAS G12S = KRAS G12S (Homo sapiens (Human), UniProt P01116+P62937, G12S); test: Ras-Raf (BRAF RBD) disruption / FRET / MOA assay, KRAS G12S; format: biochemical; conditions: Ras-Raf disruption/FRET/MOA assay; class symbols; read-out: KRAS G12S FRET data IC50
Chain of KRAS G12S (P01116-2 other isoform, or with tags, fused parts or gaps G12S): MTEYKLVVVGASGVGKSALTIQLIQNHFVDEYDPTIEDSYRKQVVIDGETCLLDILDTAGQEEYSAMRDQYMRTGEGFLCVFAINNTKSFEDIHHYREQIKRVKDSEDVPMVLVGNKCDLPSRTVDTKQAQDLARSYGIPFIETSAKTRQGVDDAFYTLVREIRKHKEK
Chain of KRAS G12S (P62937 whole entry): as the sequence (P62937 whole entry) above
Outline: as §1

KRAS G13D = KRAS G13D (Homo sapiens (Human), UniProt P01116+P62937, G13D); test: Ras-Raf (BRAF RBD) disruption / FRET / MOA assay, KRAS G13D; format: biochemical; conditions: read-out: IC50* KRAS G13D FRET data
Chain of KRAS G13D (P01116-2 other isoform, or with tags, fused parts or gaps G13D): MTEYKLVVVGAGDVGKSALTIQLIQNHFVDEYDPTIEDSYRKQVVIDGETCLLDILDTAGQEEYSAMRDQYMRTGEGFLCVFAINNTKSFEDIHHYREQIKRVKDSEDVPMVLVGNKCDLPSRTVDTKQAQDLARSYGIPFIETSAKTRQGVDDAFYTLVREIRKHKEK
Chain of KRAS G13D (P62937 whole entry): as the sequence (P62937 whole entry) above
Outline: as §1

[1] = system: NCI-H358 cells (K-Ras G12C); test: Potency assay: pERK in NCI-H358 cells; format: cell-based, human; conditions: Homo sapiens, NCI-H358; H358 KRAS G12C; read-out: pERK EC50
Outline: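 pERK decrease read by AlphaLISA SureFire p-ERK1/2 or In-Cell Western after 4 h compound exposure at 37 °C, 5% CO2.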

Chain of NRAS G12C (P01111 whole entry G12C): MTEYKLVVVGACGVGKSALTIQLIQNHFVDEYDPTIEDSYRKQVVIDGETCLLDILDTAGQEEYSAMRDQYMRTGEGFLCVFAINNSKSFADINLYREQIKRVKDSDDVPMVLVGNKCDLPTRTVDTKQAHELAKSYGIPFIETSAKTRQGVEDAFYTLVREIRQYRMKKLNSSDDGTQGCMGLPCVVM
Chain of NRAS G12C (P62937 whole entry): as the sequence (P62937 whole entry) above

SMILES	IC50 (NRAS G12C)	IC50 (K-Ras G13C)	IC50 (K-Ras G12C)	IC50 (KRAS G12V)	IC50 (KRAS G12D)	IC50 (KRAS WT)	IC50 (KRAS G12S)	IC50 (KRAS G13D)	EC50 [1]
C=CC(=O)N1CC[C@H](C(=O)N(C)[C@H](C(=O)N[C@H]2Cc3cccc(c3)-c3ccc4c(c3)c(c(-c3cc(C5CCN(C)CC5)cnc3[C@H](C)OC)n4CC)CC(C)(C)COC(=O)[C@@H]3CCCN(N3)C2=O)C(C)C)C1 (atropisomer, axis not shown) [Example A515]	10 to 100 nM	100 to 1000 nM	10 to 100 nM	1000 to 10000 nM	1000 to 10000 nM	1000 to 10000 nM	100 to 1000 nM	1000 to 10000 nM	< 5000 nM
CO[C@@H](C)c1ncccc1-c1c2c3cc(ccc3n1CC(F)(F)F)-c1nnc(o1)C[C@H](NC(=O)[C@H](C(C)C)N(C)C(=O)[C@H]1CCN(C(=O)C#CC(C)(C)N3CCC3)C1)C(=O)N1CCC[C@H](N1)C(=O)OCC(C)(C)C2 [Example A423]	10 to 100 nM	100 to 1000 nM	10 to 100 nM	1000 to 10000 nM	> 10000 nM	1000 to 10000 nM	1000 to 10000 nM	> 10000 nM	< 5000 nM
C=CC(=O)C1C[C@@H](C(=O)N(C)[C@H](C(=O)N[C@H]2Cc3cc(O)cc(c3)-c3ccc4c(c3)c(c(-c3ccccc3CCOC)n4CC)CC(C)(C)COC(=O)[C@@H]3CCCN(N3)C2=O)C(C)C)[C@@H](OC)N1 (stereo partly drawn) [Example A214]	100 nM to 1 µM and > 10 µM (2×)	1 µM to 10 µM (3×) and > 10 µM	10 nM to 100 nM (2×) and 1 µM to 10 µM (2×)	> 10000 nM	> 10000 nM	1000 to 10000 nM	1 µM to 10 µM (2×) and > 10 µM (2×)	> 10000 nM	< 5000 nM
CCn1c(-c2ccccc2CCOC)c2c3cc(ccc31)-c1cc(O)cc(c1)C[C@H](NC(=O)[C@H](C(C)C)N(C)C(=O)c1ccc(NC(=O)/C=C/CN(C)C)cc1)C(=O)N1CCC[C@H](N1)C(=O)OCC(C)(C)C2 [Example A225]	100 nM to 1 µM and > 10 µM (2×)	1 µM to 10 µM (3×) and > 10 µM	10 nM to 100 nM (2×) and 1 µM to 10 µM (2×)	> 10000 nM	> 10000 nM	1000 to 10000 nM	1 µM to 10 µM (2×) and > 10 µM (2×)	> 10000 nM	< 5000 nM
CCn1c(-c2cnccc2COC)c2c3cc(ccc31)-c1ccnc(c1)C[C@H](NC(=O)[C@H](C(C)C)N(C)C(=O)[C@H]1CCN(C(=O)C#CCN(C)C)C1)C(=O)N1CCC[C@H](N1)C(=O)OCC(C)(C)C2 [Example A130]	< 10 nM	100 to 1000 nM	< 10 nM	> 10000 nM	1000 to 10000 nM	> 10000 nM	> 10000 nM	1000 to 10000 nM	< 5000 nM
CCn1c(-c2cncnc2)c2c3cc(ccc31)-c1cccc(c1)C[C@H](NC(=O)[C@H](C(C)C)N(C)C(=O)[C@H]1CCN(C(=O)C#CCN(C)C)C1)C(=O)N1CCC[C@H](N1)C(=O)OCC(C)(C)C2 [Example A144]	10 to 100 nM and 100 to 1000 nM	1000 to 10000 nM	10 to 100 nM and 100 to 1000 nM	> 10000 nM	1000 to 10000 nM	> 10000 nM	> 10000 nM	1000 to 10000 nM	< 5000 nM

Continued, values first:

IC50 (NRAS G12C)	IC50 (K-Ras G13C)	IC50 (K-Ras G12C)	IC50 (KRAS G12V)	IC50 (KRAS G12D)	IC50 (KRAS WT)	IC50 (KRAS G12S)	IC50 (KRAS G13D)	EC50 [1]	SMILES
10 to 100 nM and 1000 to 10000 nM	1000 to 10000 nM and > 10000 nM	10 to 100 nM and 100 to 1000 nM	1000 to 10000 nM and > 10000 nM	> 10000 nM	> 10000 nM	> 10000 nM	> 10000 nM	< 5000 nM	CCn1c(-c2cccnc2[C@H](C)OC)c2c3cc(ccc31)-c1cccc(c1)C[C@H](NC(=O)[C@H](C(C)C)N(C)C(=O)[C@H]1CCN(C(=O)C#CCN3CCOCC3)C1)C(=O)N1CCC[C@H](N1)C(=O)OCC(C)(C)C2 (atropisomer, axis not shown) [Example A191]
10 to 100 nM and 100 to 1000 nM	10 to 100 nM and 100 to 1000 nM	10 to 100 nM and 100 to 1000 nM	100 to 1000 nM and 1000 to 10000 nM	1000 to 10000 nM and 100 to 1000 nM	1000 to 10000 nM and 10 to 100 nM	100 to 1000 nM	100 to 1000 nM and 10 to 100 nM	< 5000 nM	CCn1c(-c2cccnc2[C@H](C)OC)c2c3cc(ccc31)-c1cc(O)cc(c1)C[C@H](NC(=O)[C@H](C(C)C)N(C)C(=O)C1CCN(C(=O)/C=C/CN(C)C)CC1)C(=O)N1CCC[C@H](N1)C(=O)OCC(C)(C)C2 (atropisomer, axis not shown) [Example A261]
100 to 1000 nM and < 10 nM	100 to 1000 nM and > 10000 nM	10 to 100 nM and < 10 nM	100 to 1000 nM and > 10000 nM	> 10000 nM	1000 to 10000 nM and > 10000 nM	1000 to 10000 nM and > 10000 nM	1000 to 10000 nM and > 10000 nM	< 5000 nM	CCn1c(-c2cccnc2COC)c2c3cc(ccc31)-c1cc(O)cc(c1)C[C@H](NC(=O)[C@H](C(C)C)N(C)C(=O)[C@H]1CCN(C(=O)C#CCN3[C@@H](C)COC[C@@H]3C)C1)C(=O)N1CCC[C@H](N1)C(=O)OCC(C)(C)C2 [Example A209]
< 10 nM	< 10 nM	< 10 nM	100 to 1000 nM	100 to 1000 nM	10 to 100 nM	10 to 100 nM	10 to 100 nM	< 5000 nM	C=CC(=O)N1CC2(CCN([C@H](C(=O)N[C@H]3Cc4cc(O)cc(c4)-c4ccc5c(c4)c(c(-c4cccnc4[C@H](C)OC)n5CC)CC(C)(C)COC(=O)[C@@H]4CCCN(N4)C3=O)C(C)C)C2=O)C1 (atropisomer, axis not shown) [Example A294]
100 to 1000 nM and < 10 nM	100 to 1000 nM and 1000 to 10000 nM	100 to 1000 nM and < 10 nM	1000 to 10000 nM and > 10000 nM	1000 to 10000 nM	1000 to 10000 nM and > 10000 nM	1000 to 10000 nM and > 10000 nM	1000 to 10000 nM	< 5000 nM	CCn1c(-c2cnccc2COC)c2c3cc(ccc31)-c1cccc(c1)C[C@H](NC(=O)[C@H](C(C)C)N(C)C(=O)[C@H]1CCN(C(=O)C#CCN(C)C)C1)C(=O)N1CCC[C@H](N1)C(=O)OCC(C)(C)C2 (atropisomer, axis not shown) [Example A120]
100 to 1000 nM and < 10 nM	100 to 1000 nM and > 10000 nM	100 to 1000 nM and < 10 nM	1000 to 10000 nM and 10 to 100 nM	> 10000 nM and 100 to 1000 nM	100 to 1000 nM and > 10000 nM	1000 to 10000 nM and 10 to 100 nM	100 to 1000 nM and > 10000 nM	< 5000 nM	CCn1c(-c2cccnc2[C@H](C)OC)c2c3cc(ccc31)-c1cc(O)cc(c1)C[C@H](NC(=O)[C@H](C(C)C)N(C)C(=O)[C@H]1CCN(C(=O)/C=C/CN3CCOCC3)C1)C(=O)N1CCC[C@H](N1)C(=O)OCC(C)(C)C2 (atropisomer, axis not shown) [Example A184]
100 to 1000 nM	100 to 1000 nM	100 to 1000 nM	1000 to 10000 nM	1000 to 10000 nM	1000 to 10000 nM	1000 to 10000 nM	1000 to 10000 nM	< 5000 nM	C=CC(=O)N1CC[C@@H](C(=O)N(C)[C@H](C(=O)N[C@H]2Cc3cccc(c3)-c3ccc4c(c3)c(c(-c3cccnc3[C@H](C)OC)n4CC)CC(C)(C)COC(=O)[C@@H]3CCCN(N3)C2=O)C(C)C)C1 (atropisomer, axis not shown) [Example A488]
